In patent US20130202649A1, “ACTIVATION OF INNATE IMMUNITY FOR NUCLEAR REPROGRAMMING OF SOMATIC CELLS” (The Board of Trustees of the Leland Stanford Junior …, priority 2012, published 2013):

Experiments:
[1] = tested on: human foreskin fibroblasts (BJ); test: Transdifferentiation of human fibroblasts to endothelial cells (FACS); assay type: cell-based; details: Poly I:C 30 ng/ml
Experimental: FIG. 21: Direct reprogramming of human fibroblasts to functional endothelial cells via innate immunity activation and microenvironmental cues: (A) Protocol for direct reprogramming of human BJ fibroblasts to endothelial cells. The figure describes the time course and sequential treatments of different medias: Human fibroblasts were treated with Poly I:C (30 ng/ml) for 7 days in differentiation medium I containing DMEM/FBS and 7.5% knockout serum replacement (KSR). Following 7 days, the medium was changed to differentiation medium II containing DMEM/FBS and 10% KSR containing 20 ng/ml BMP4, 50 ng/ml VEGF and 20 ng/ml bFGF. After another 7 days, the medium was replaced with endothelial medium (EGM2) containing 50 ng/ml VEGF, 20 ng/ml bFGF and 0.1 mM 8-Br-cAMP for another 14 days. The medium was changed every 2-3 days. […] (B) Fluorescent activated cell sorting (FACs) plot of data obtained using CD31+ antibody to quantitate iECs. […]
Innate immunity (TLR3 signaling) enables efficient transdifferentiation of fibroblasts to ECs: To determine whether TLR3 signaling was necessary for efficient transdifferentiation of human fibroblasts, we assessed direct differentiation in BJ fibroblasts previously treated with scrambled shRNA or shRNA to knockdown (KD) the expression of TLR3. […]

Oct4 and Sox2 promoters = test: ChIP of histone H3 trimethylation at Oct4 and Sox2 promoters; assay type: cell-based, human
Experimental: We hypothesized that TLR3 activation might enhance early transcriptional activation by inducing an open chromatin state, permitting the reprogramming factors to induce an ESC-specific gene expression pattern. Accordingly, we performed ChIP assays to detect trimethylation of histone H3 at lysine 4 (H3K4me3). This epigenetic modification marks transcriptionally active genes. Human fibroblasts were treated with pMXSox2, or with CPPSox2 in the presence of poly I:C or pMXGFP. […] In a similar fashion, we assessed histone H3 at lysine 9 (H3K9me3) in the Oct4 and Sox2 promoters. This epigenetic modification marks transcriptionally silenced genes. […] These studies provided an epigenetic mechanism to explain the effect of TLR3 activation to enhance nuclear reprogramming.
Chromatin Immunoprecipitation and ChIP-qPCR qChIP was performed as previously described (Lim et al., 2009; Peng et al., 2009). For qChIP and qRT-PCR, error estimates are standard deviations. Recovery of genomic DNA as the percentage input was calculated as the ratio of copy numbers in the immunoprecipitate to the input control. Primers of Oct4 and Sox2 promoters were purchased from Cell Signaling.

HDAC = HDAC expression (cDNA profiling, Western); assay type: cell-based, human
Text: Histone acetylation status influences the folding and functional state of the chromatin and modulates the accessibility of DNA to the transcriptional machinery for gene expression. Histone de-acetylation is generally associated with a closed chromatin state, and inhibitors of histone de-acetylase (HDAC) such as valproic acid are employed to enhance nuclear reprogramming. […] The downregulation of HDAC1 expression by poly I:C was confirmed by Western analysis (FIG. 17).
Gene Expression and Microarray Analyses RNA was isolated with the RNeasy kit. First-strand cDNA was primed with oligo(dT) primers and qPCR was performed with primer sets from Applied Biosystems. RNA probes were prepared and hybridized to Illumina HumanHT-12 v4 Expression BeadChip microarrays.
Western Blotting Proteins were extracted from BJ fibroblasts by solubilizing the cells in RIPA buffer containing 1× protease inhibitor cocktail. 25 μg of total protein was loaded and resolved on SDSpolyacrylamide gels, transferred to PVDF membranes and probed with the following primary antibodies: anti-HP1α and anti-HDAC (Cell Signaling), and β-actin (Sigma, A5441). Immunoblots were developed with enhanced chemiluminescence reagents (Amersham).

[2] = in combination with CPPSox2, day 2

Substance: Polyinosinicpolycytidylic acid [Poly I:C]
- transdifferentiation of fibroblasts to iECs [1]: significantly enhanced
- cells expressed CD31 ([1]; 28 days of differentiation, FACS, relative to the vehicle control): Approximately 2%
- H3K4 trimethylation at the Sox2 promoter (Oct4 and Sox2 promoters; CPP-treated fibroblasts): accelerated H3K4 trimethylation
- H3K9 trimethylation at the Sox2 promoter (Oct4 and Sox2 promoters; CPP-treated fibroblasts): accelerated the loss of H3K9 trimethylation
- H3K4 trimethylation at the Oct4 promoter (Oct4 and Sox2 promoters; agent alone, day 2 (time course day 2-6)): had no effect
- H3K4 trimethylation at the Oct4 promoter (Oct4 and Sox2 promoters; [2]): induced changes in H3K4 trimethylation
- H3K9 trimethylation at the Oct4 promoter (Oct4 and Sox2 promoters; [2]): enhanced the H3K9 trimethylation
- expression of a suite of HDAC genes (HDAC; CPP treated human fibroblasts): downregulated
- HDAC 1 protein expression (immunoblot) (HDAC; day 2 to day 6): early (day 2) and sustained (to day 6) inhibition
